Data: the kinase profiling compilation of Christmann-Franck et al. (2016)
Where “and” joins values, the source holds several entries; their conditions need not be identical. Equal values may be shown once.

Experiments:
Experiment in all cases: radiometric filter-binding kinase assay
PRKACA (human) = PRKACA (human) (UniProt P17612); conditions: compound 100.0 µM; ATP 20 µM
TAOK1 (human) = TAOK1 (human) (UniProt Q7L7X3); conditions: compound 100.0 µM; ATP 20 µM
MAPK12 (human) = MAPK12 (human) (UniProt P53778); conditions: compound 100.0 µM; ATP 5 µM
PTK6 (human) = PTK6 (human) (UniProt Q13882); conditions: compound 100.0 µM; ATP 20 µM
MAP3K7 TAB1 (human) = MAP3K7 TAB1 (human) (UniProt Q15750+O43318); conditions: compound 100.0 µM; ATP 5 µM
MAPK8 (human) = MAPK8 (human) (UniProt P45983); conditions: compound 100.0 µM; ATP 20 µM
MAP3K1 (human) = MAP3K1 (human) (UniProt Q13233); conditions: compound 100.0 µM; ATP 50 µM
MAPK11 (human) = MAPK11 (human) (UniProt Q15759); conditions: compound 100.0 µM; ATP 20 µM
MARK1 (human) = MARK1 (human) (UniProt Q9P0L2); conditions: compound 100.0 µM; ATP 20 µM
MARK3 (human) = MARK3 (human) (UniProt P27448); conditions: compound 100.0 µM; ATP 5 µM
EEF2K (human) = EEF2K (human) (UniProt O00418); conditions: compound 100.0 µM; ATP 5 µM
ROCK2 (rat) = conditions: compound 100.0 µM; ATP 20 µM; accession and sequence are those of the human protein
PLK1 (human) = PLK1 (human) (UniProt P53350); conditions: compound 100.0 µM; ATP 5 µM
GCK (human) = GCK (human) (UniProt Q12851); conditions: compound 100.0 µM; ATP 20 µM
BRSK1 (human) = BRSK1 (human) (UniProt Q8TDC3); conditions: compound 100.0 µM; ATP 20 µM
FGFR1 (human) = FGFR1 (human) (UniProt P11362); conditions: compound 100.0 µM; ATP 20 µM
EPHB3 (human) = EPHB3 (human) (UniProt P54753); conditions: compound 100.0 µM; ATP 20 µM
MST4 (human) = MST4 (human) (UniProt Q9P289); conditions: compound 100.0 µM; ATP 20 µM
MKNK1 (human) = MKNK1 (human) (UniProt Q9BUB5); conditions: compound 100.0 µM; ATP 50 µM
MAP3K5 (human) = MAP3K5 (human) (UniProt Q99683); conditions: compound 100.0 µM; ATP 50 µM
RPS6KA1 KD1 KD2 (human) = RPS6KA1 KD1 KD2 (human) (UniProt Q15418); conditions: compound 100.0 µM; ATP 50 µM
MARK4 (human) = MARK4 (human) (UniProt Q96L34); conditions: compound 100.0 µM; ATP 50 µM
EPHA4 (human) = EPHA4 (human) (UniProt P54764); conditions: compound 100.0 µM; ATP 50 µM
PRKCZ (human) = PRKCZ (human) (UniProt Q05513); conditions: compound 100.0 µM; ATP 5 µM
STK16 (human) = STK16 (human) (UniProt O75716); conditions: compound 100.0 µM; ATP 50 µM
IRAK4 (human) = IRAK4 (human) (UniProt Q9NWZ3); conditions: compound 100.0 µM; ATP 20 µM
EPHA2 (human) = EPHA2 (human) (UniProt P29317); conditions: compound 100.0 µM; ATP 50 µM
PIM1 (human) = PIM1 (human) (UniProt P11309); conditions: compound 100.0 µM; ATP 20 µM
EPHB4 (human) = EPHB4 (human) (UniProt P54760); conditions: compound 100.0 µM; ATP 5 µM
STK3 (human) = STK3 (human) (UniProt Q13188); conditions: compound 100.0 µM; ATP 20 µM
PAK6 (human) = PAK6 (human) (UniProt Q9NQU5); conditions: compound 100.0 µM; ATP 20 µM
CSK (human) = CSK (human) (UniProt P41240); conditions: compound 100.0 µM; ATP 20 µM
CLK2 (human) = CLK2 (human) (UniProt P49760); conditions: compound 100.0 µM; ATP 5 µM
LCK (mouse) = conditions: compound 100.0 µM; ATP 50 µM; accession and sequence are those of the human protein
MAP2K2 (human) = MAP2K2 (human) (UniProt P36507); conditions: compound 100.0 µM; ATP 5 µM
Chain of MAP2K2 (human) (P36507 whole entry, looked up): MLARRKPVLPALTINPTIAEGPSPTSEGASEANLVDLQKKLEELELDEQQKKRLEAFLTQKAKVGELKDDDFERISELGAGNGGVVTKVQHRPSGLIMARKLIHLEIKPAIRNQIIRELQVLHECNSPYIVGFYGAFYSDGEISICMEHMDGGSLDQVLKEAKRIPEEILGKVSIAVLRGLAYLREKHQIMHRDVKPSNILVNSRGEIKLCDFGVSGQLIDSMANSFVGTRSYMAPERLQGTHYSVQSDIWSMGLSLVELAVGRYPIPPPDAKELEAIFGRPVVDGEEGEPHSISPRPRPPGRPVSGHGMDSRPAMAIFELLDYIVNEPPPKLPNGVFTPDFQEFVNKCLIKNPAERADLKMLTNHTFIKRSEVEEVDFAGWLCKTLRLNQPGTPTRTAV

Chain of MAPK12 (human) (P53778 whole entry, looked up): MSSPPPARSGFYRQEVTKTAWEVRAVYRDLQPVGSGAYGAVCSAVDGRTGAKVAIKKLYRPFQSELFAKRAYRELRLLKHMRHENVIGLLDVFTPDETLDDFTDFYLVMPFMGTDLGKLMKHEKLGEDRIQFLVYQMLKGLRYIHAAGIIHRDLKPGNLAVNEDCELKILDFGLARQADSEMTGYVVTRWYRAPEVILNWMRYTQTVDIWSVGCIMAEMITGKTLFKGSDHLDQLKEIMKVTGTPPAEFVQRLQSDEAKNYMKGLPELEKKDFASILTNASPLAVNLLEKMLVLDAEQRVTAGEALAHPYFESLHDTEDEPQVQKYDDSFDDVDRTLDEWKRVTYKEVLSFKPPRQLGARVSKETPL
Chain of EPHA4 (human) (P54764 whole entry, looked up): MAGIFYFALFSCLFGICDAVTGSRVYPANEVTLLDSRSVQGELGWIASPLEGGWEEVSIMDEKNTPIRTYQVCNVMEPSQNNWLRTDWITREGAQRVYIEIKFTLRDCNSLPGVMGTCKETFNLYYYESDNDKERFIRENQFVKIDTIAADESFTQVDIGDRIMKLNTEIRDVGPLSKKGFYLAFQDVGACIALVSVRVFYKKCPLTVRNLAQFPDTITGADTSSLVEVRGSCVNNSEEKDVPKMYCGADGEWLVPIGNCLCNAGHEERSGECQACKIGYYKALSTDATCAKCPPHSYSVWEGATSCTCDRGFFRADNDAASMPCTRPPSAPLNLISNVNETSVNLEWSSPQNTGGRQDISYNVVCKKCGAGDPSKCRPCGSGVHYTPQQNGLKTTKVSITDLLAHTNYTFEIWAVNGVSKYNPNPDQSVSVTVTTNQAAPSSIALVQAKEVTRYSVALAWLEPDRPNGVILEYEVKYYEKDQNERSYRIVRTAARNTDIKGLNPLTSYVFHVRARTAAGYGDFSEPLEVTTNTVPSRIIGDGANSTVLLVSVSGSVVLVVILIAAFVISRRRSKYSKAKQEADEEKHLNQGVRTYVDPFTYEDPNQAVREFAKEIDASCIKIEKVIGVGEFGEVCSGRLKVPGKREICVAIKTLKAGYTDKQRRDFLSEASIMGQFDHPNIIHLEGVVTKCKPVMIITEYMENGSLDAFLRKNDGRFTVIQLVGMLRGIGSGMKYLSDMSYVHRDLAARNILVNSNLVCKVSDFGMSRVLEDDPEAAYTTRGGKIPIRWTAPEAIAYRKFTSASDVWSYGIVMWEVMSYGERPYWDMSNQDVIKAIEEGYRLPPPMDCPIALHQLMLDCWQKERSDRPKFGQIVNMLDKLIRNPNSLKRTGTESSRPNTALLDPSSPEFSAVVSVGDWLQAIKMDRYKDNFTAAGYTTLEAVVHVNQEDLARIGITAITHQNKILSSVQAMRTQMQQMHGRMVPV
Chain of EPHB3 (human) (P54753 whole entry, looked up): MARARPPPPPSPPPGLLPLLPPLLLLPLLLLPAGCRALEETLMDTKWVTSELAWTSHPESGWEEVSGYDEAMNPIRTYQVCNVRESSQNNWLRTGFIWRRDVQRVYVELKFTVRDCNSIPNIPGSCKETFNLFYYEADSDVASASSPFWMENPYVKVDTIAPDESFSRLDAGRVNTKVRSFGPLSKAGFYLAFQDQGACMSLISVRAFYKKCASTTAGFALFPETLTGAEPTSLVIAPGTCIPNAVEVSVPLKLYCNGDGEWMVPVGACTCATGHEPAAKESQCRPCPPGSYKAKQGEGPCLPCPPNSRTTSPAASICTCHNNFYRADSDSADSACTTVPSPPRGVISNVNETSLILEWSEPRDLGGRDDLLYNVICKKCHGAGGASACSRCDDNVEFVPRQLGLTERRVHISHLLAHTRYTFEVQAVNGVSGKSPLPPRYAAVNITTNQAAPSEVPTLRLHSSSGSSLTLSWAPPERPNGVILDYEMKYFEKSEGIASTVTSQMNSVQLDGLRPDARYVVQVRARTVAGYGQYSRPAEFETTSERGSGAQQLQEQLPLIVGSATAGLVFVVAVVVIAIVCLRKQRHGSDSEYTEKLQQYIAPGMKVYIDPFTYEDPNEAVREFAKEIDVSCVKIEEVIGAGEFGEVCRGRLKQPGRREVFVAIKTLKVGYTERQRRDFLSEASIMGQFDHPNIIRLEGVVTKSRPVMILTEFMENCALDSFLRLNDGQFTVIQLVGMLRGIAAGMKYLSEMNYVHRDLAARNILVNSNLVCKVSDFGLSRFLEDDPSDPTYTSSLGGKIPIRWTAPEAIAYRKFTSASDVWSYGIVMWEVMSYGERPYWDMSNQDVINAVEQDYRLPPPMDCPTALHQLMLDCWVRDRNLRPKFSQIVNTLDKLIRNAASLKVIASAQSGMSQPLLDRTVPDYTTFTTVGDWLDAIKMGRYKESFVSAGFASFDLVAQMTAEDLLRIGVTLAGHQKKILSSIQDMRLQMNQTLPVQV
Chain of MARK1 (human) (Q9P0L2 whole entry, looked up): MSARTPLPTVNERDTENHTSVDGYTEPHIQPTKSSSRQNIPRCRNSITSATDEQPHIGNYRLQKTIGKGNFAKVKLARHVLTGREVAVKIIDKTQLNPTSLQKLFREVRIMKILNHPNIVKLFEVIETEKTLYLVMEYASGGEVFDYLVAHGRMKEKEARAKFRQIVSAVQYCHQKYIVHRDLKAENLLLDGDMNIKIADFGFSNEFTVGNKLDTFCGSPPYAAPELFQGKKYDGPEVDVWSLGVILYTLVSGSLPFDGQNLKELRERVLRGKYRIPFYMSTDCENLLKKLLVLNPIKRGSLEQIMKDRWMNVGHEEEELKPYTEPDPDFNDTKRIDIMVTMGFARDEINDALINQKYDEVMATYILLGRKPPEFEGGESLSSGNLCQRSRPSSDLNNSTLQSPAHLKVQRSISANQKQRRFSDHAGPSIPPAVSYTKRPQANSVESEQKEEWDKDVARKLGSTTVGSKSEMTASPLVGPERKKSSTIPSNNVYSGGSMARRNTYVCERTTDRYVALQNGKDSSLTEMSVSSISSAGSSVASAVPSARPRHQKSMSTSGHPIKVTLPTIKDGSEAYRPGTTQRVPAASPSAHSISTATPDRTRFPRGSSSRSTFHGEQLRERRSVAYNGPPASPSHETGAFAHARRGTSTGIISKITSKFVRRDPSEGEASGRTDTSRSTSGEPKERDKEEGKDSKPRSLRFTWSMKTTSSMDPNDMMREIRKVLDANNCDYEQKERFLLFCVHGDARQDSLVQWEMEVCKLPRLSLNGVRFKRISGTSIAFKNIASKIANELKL
Chain of MKNK1 (human) (Q9BUB5 whole entry, looked up): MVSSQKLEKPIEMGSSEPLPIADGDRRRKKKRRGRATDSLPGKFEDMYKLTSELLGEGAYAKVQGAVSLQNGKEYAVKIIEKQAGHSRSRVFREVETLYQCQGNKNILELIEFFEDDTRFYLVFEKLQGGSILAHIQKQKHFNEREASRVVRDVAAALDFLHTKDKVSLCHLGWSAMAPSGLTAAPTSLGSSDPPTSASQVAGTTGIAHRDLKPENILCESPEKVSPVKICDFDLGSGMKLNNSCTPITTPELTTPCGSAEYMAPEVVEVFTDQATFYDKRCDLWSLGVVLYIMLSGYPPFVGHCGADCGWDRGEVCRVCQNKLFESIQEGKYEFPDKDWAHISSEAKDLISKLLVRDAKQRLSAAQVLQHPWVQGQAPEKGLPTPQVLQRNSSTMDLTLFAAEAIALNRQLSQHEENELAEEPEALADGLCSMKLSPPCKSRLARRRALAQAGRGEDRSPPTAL
Chain of PTK6 (human) (Q13882 whole entry, looked up): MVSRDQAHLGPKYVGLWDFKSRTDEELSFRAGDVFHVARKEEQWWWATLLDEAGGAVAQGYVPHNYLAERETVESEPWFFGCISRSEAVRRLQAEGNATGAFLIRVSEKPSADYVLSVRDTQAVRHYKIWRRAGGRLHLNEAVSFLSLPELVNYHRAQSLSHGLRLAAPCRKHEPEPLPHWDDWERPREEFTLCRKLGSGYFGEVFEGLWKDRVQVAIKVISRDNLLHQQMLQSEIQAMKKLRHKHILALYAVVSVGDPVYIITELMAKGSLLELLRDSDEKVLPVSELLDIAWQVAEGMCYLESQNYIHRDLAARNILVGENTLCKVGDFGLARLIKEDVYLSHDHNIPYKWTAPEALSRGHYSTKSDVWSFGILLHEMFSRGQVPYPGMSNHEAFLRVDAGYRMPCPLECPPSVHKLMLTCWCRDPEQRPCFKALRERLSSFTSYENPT
Chain of STK16 (human) (O75716 whole entry, looked up): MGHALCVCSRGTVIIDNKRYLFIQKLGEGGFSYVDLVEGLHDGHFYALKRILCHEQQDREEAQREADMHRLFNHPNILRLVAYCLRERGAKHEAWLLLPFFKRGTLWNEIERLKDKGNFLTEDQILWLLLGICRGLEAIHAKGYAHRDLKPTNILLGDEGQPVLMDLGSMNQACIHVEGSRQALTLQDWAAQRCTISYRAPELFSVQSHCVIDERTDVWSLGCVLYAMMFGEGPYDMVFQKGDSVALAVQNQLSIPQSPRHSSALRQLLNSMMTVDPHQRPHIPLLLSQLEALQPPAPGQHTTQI

Compound | inhibition (PRKACA (human)) | inhibition (TAOK1 (human)) [%] | inhibition (MAPK12 (human)) [%] | inhibition (PTK6 (human)) [%] | inhibition (MAP3K7 TAB1 (human)) [%] | inhibition (MAPK8 (human)) [%] | inhibition (MAP3K1 (human)) [%] | inhibition (MAPK11 (human)) [%] | inhibition (MARK1 (human)) [%] | inhibition (MARK3 (human)) [%] | inhibition (EEF2K (human)) [%] | inhibition (ROCK2 (rat)) [%] | inhibition (PLK1 (human)) [%] | inhibition (GCK (human)) [%] | inhibition (BRSK1 (human)) [%] | inhibition (FGFR1 (human)) [%] | inhibition (EPHB3 (human)) [%] | inhibition (MST4 (human)) [%] | inhibition (MKNK1 (human)) [%] | inhibition (MAP3K5 (human)) [%] | other results
CC(=O)Nc1nc2cnc(-c3ccccc3)cn2n1 | 0% | 0 | 24 | 1 | 30 | 2 | 9 | 22 | 6 | 38 | 13 | 25 | 4 | 39 | 23 | 45 | 32 | 16 | 53 | 25 | inhibition (RPS6KA1 KD1 KD2 (human)): 24%; inhibition (MARK4 (human)): 0%; inhibition (EPHA4 (human)): 19%; inhibition (PRKCZ (human)): 11%; inhibition (STK16 (human)): 0%; inhibition (IRAK4 (human)): 39%; inhibition (EPHA2 (human)): 0%; inhibition (PIM1 (human)): 13%; inhibition (EPHB4 (human)): 11%; inhibition (STK3 (human)): 0%; inhibition (PAK6 (human)): 18%; inhibition (CSK (human)): 29%; inhibition (CLK2 (human)): 79%; inhibition (LCK (mouse)): 29%; inhibition (MAP2K2 (human)): 6%
CC(=O)Nc1nc2cnc(-c3c(C)cccc3C)cn2n1 | 0% and 1% | 1 | 0 | 0 | 0 | 0 | 0 | 0 | 0 | 0 | 7 | 0 | 0 | 0 | 0 | 3 | 4 | 0 | 0 | 0 | inhibition (RPS6KA1 KD1 KD2 (human)): 0%; inhibition (MARK4 (human)): 17%; inhibition (EPHA4 (human)): 10%; inhibition (PRKCZ (human)): 0%; inhibition (STK16 (human)): 0%; inhibition (IRAK4 (human)): 0%; inhibition (EPHA2 (human)): 0%; inhibition (PIM1 (human)): 9%; inhibition (EPHB4 (human)): 27%; inhibition (STK3 (human)): 0%; inhibition (PAK6 (human)): 0%; inhibition (CSK (human)): 0%; inhibition (CLK2 (human)): 28%; inhibition (LCK (mouse)): 0%; inhibition (MAP2K2 (human)): 0%
CC(C)(C)Nc1c(COCc2ccccc2)nc2[nH]cnn12 | 0% and 21% | 0 | 0 | 21 | 31 | 2 | 0 | 3 | 0 | 13 | 0 | 0 | 0 | 0 | 0 | 40 | 90 | 0 | 0 | 2 | inhibition (RPS6KA1 KD1 KD2 (human)): 3%; inhibition (MARK4 (human)): 22%; inhibition (EPHA4 (human)): 4%; inhibition (PRKCZ (human)): 0%; inhibition (STK16 (human)): 0%; inhibition (IRAK4 (human)): 0%; inhibition (EPHA2 (human)): 0%; inhibition (PIM1 (human)): 30%; inhibition (EPHB4 (human)): 13%; inhibition (STK3 (human)): 0%; inhibition (PAK6 (human)): 20%; inhibition (CSK (human)): 0%; inhibition (CLK2 (human)): 43%; inhibition (LCK (mouse)): 5%; inhibition (MAP2K2 (human)): 11%
COc1ccc(-c2cc3c(=O)[nH]cnc3s2)cc1OC | 34% and 38% | 28 | 0 | 16 | 45 | 8 | 0 | 15 | 27 | 24 | 2 | 19 | 0 | 0 | 45 | 32 | 0 | 16 | 5 | 19 | inhibition (RPS6KA1 KD1 KD2 (human)): 59%; inhibition (MARK4 (human)): 23%; inhibition (EPHA4 (human)): 12%; inhibition (PRKCZ (human)): 0%; inhibition (STK16 (human)): 12%; inhibition (IRAK4 (human)): 9%; inhibition (EPHA2 (human)): 37%; inhibition (PIM1 (human)): 38%; inhibition (EPHB4 (human)): 0%; inhibition (STK3 (human)): 9%; inhibition (PAK6 (human)): 0%; inhibition (CSK (human)): 14%; inhibition (CLK2 (human)): 50%; inhibition (LCK (mouse)): 29%; inhibition (MAP2K2 (human)): 0%

More lines, main results first:

inhibition (PRKACA (human)) | inhibition (TAOK1 (human)) [%] | inhibition (MAPK12 (human)) [%] | inhibition (PTK6 (human)) [%] | inhibition (MAP3K7 TAB1 (human)) [%] | inhibition (MAPK8 (human)) [%] | inhibition (MAP3K1 (human)) [%] | inhibition (MAPK11 (human)) [%] | inhibition (MARK1 (human)) [%] | inhibition (MARK3 (human)) [%] | inhibition (EEF2K (human)) [%] | inhibition (ROCK2 (rat)) [%] | inhibition (PLK1 (human)) [%] | inhibition (GCK (human)) [%] | inhibition (BRSK1 (human)) [%] | inhibition (FGFR1 (human)) [%] | inhibition (EPHB3 (human)) [%] | inhibition (MST4 (human)) [%] | inhibition (MKNK1 (human)) [%] | inhibition (MAP3K5 (human)) [%] | Compound | other results
0% | 0 | 0 | 19 | 15 | 0 | 6 | 2 | 0 | 5 | 6 | 0 | 0 | 0 | 2 | 0 | 0 | 0 | 0 | 9 | O=C(Nc1cnc2[nH]cnn2c1=O)c1ccccc1 | inhibition (RPS6KA1 KD1 KD2 (human)): 15%; inhibition (MARK4 (human)): 0%; inhibition (EPHA4 (human)): 11%; inhibition (PRKCZ (human)): 0%; inhibition (STK16 (human)): 10%; inhibition (IRAK4 (human)): 0%; inhibition (EPHA2 (human)): 0%; inhibition (PIM1 (human)): 0%; inhibition (EPHB4 (human)): 6%; inhibition (STK3 (human)): 0%; inhibition (PAK6 (human)): 0%; inhibition (CSK (human)): 8%; inhibition (CLK2 (human)): 0%; inhibition (LCK (mouse)): 18%; inhibition (MAP2K2 (human)): 0%
0% and 11% | 3 | 6 | 30 | 37 | 0 | 53 | 23 | 5 | 11 | 7 | 29 | 8 | 29 | 44 | 41 | 0 | 13 | 31 | 8 | O=c1cc(-c2ccccc2F)nc2[nH]ccn12 | inhibition (RPS6KA1 KD1 KD2 (human)): 16%; inhibition (MARK4 (human)): 0%; inhibition (EPHA4 (human)): 16%; inhibition (PRKCZ (human)): 0%; inhibition (STK16 (human)): 15%; inhibition (IRAK4 (human)): 40%; inhibition (EPHA2 (human)): 9%; inhibition (PIM1 (human)): 67%; inhibition (EPHB4 (human)): 6%; inhibition (STK3 (human)): 27%; inhibition (PAK6 (human)): 3%; inhibition (CSK (human)): 8%; inhibition (CLK2 (human)): 48%; inhibition (LCK (mouse)): 23%; inhibition (MAP2K2 (human)): 18%
